In patent publication US20050267067A1, “Radical reaction inhibitors, method for inhibition of radical reactions, and use thereof” (priority 2002, published 2005):

Legend:
[1] = Oxidation of rat small intestinal mucosal enzyme solution by AAPH (conjugated diene, TBARS); type: biochemical
Protocol: As a model system for examining the influence of cyclotetrasaccharide on small intestinal mucous disorders, there was provided a system for examining the influence of cyclotetrasaccharide on the oxidation of a rat small intestinal mucosal enzyme solution by 2,2-azo-bis(2-amidinopropane)-dihydrochloric acid (AAPH).
To two grams of a rat small intestinal mucosal acetone powder, commercialized by Sigma Chemical Company, St. Louis, Mo., USA, was added 20 ml of 50 mM PBS (pH 7.2) and homogenized in ice bath. The mixture was centrifuged at 10,000 rpm for 10 min to obtain a supernatant for use as a rat small intestinal mucosal enzyme solution containing 10 mg/ml of proteins. A half milliliter of the rat small intestinal mucosal enzyme solution, 0.5 ml of a 100 mM AAPH solution, and 0.5 ml of a 200 mM of the crystalline cyclotetrasaccharide pentahydrate prepared in Experiment 1-1 were mixed, followed by incubation at 37° C. for […]. During the incubation, the mixture was sampled at two and six hours after initiating the incubation for quantifying the formed conjugated diene, while the specimens sampled at six hours after initiating the incubation were quantified for the formed TBARS.

[2] = tested on: sucrase; experiment: Sucrase activity of rat small intestinal mucosal enzyme solution after AAPH oxidation; type: biochemical
Protocol: One milliliter of the above rat small intestinal mucosal enzyme solution, one milliliter of a 100 mM AAPH solution, one milliliter of a 50 mM phosphate buffer (pH 7.2), and one milliliter of a 400 mM of the crystalline cyclotetrasaccharide pentahydrate prepared in Experiment 1-1 were mixed, incubated at 37° C. for two hours, and measured for the activities of sucrase and maltase.
After incubated at 37° C. for 30 min, the mixture was quantified for free glucose by the GOD method.

[3] = tested on: low density lipoprotein (LDL); experiment: Oxidation of low density lipoprotein (LDL) by AAPH, absorbance at 234 nm; type: biochemical; settings: for Absorbance at a wavelength of 234 nm Average: 120 min after initiating the reaction
Protocol: An experiment for examining the influence of cyclotetrasaccharide on the oxidation inhibition for low density lipoprotein (LDL) was conducted as follows: Two and half milliliters of 0.5 mg/ml of a low density lipoprotein (LDL) in phosphate buffered saline (PBS, pH 7.4) was mixed with 2.5 ml of 100 mM PBS solution containing any one of the crystalline cyclotetrasaccharide pentahydrate, crystalline cyclotetrasaccharide monohydrate, and anhydrous crystalline cyclotetrasaccharide, which had been prepared in Experiment 1-1, in PBS or 2.5 ml of PBS free of cyclotetrasaccharide. The resulting mixture was admixed with 50 μl of 100 mM 2,2′-azo-bis(2-amidinopropane)dihydrochloride (AAPH) in PBS (pH 7.4) and reacted at 37° C. The reaction was continued for 240 min to examine changes on time course. […] In Table 2, the results for crystalline cyclotetrasaccharide pentahydrate are only shown because crystalline cyclotetrasaccharide pentahydrate, crystalline cyclotetrasaccharide monohydrate, and anhydrous crystalline cyclotetrasaccharide gave similar results. Also, the influence of cyclotetrasaccharide on the oxidation of a low density lipoprotein (LDL) by AAPH was examined by mixing a 2.5 ml solution containing 0.5 mg/ml of a low density lipoprotein (LDL) in PBS with 2.5 ml of a PBS solution in which the crystalline cyclotetrasaccharide pentahydrate, prepared in Experiment 1-1, had been dissolved to give a concentration of 2 mM, 10 mM or 20 mM, or 2.5 ml of PBS with no cyclotetrasaccharide; and measuring for absorbance at a wavelength of 234 nm for each of the resulting mixtures similarly as above.

[4] = Preservation of vitamin D3 tablets at 60° C., absorbance at 265 nm; type: physicochemical; settings: for Amount of vitamin D3: per one gram of vitamin D3 tablet
Protocol: Vitamin D3 (cholecalciferol), as vitamin D, commercialized by Wako Pure Chemical Industries Ltd., Tokyo, Japan, was dissolved in ethanol with the highest purity, commercialized by Katayama Chemical Industries Co., Ltd., Osaka, Japan, to make into an ethanol solution with a vitamin D3 content of 3%. To eight grams of the powdery anhydrous cyclotetrasaccharide, prepared in Example 3, was added 1.5 ml of the above ethanol solution and the resulting mixture was pulverized similarly as in Example 20, dried under a reduced pressure, and made into a powdery vitamin D3 preparation containing cyclotetrasaccharide. […] About 0.3 gram each of the powdery vitamin D3 preparations containing any one of the above saccharides was made into a vitamin D3 tablet by pressurizing at 200 kg/cm^2 for two minutes using a tablet machine. Vitamin D3 tablets thus obtained were weighted and each one tablet of which was placed in a 20 ml-glass vial and sealed to obtain five kinds of vitamin D3 tablets containing a saccharide. The vials were preserved under a normal pressure at 60° C. and the amount of vitamin D3 remaining in the vials was examined just after preparation, after preserving for two hours, one day, two days, and seven days, respectively. The amount of vitamin D3 in each tablet was determined by: adding 10 ml of 70% aqueous ethanol solution to each vial containing any of the test samples; crushing the tablets using a glass rod before extracting vitamin D3; filling up the total volume to 50 ml with 70% aqueous ethanol solution; centrifuging the resulting solutions at 10,000 rpm for 10 minutes; filtrating the resulting supernatants; and measuring the absorbance at a wavelength of 265 nm for the resulting filtrates. The amount of vitamin D3 was calculated based on the absorbance coefficient (E1%) at a wavelength of 265 nm, which was regarded as 475. The amount of vitamin D3 (mg) per one gram of each of the vitamin D3 tablets and the residual vitamin D3 (%) was calculated based on the amount of vitamin D3 in the test samples just after preparation, which was regarded as 100%. The results are in Table

[5] = just after its preparation (regarded as 100%)

OCC1OC2OCC3O[C@H](O[C@H]4C(O)C(CO)OC(OCC5O[C@H](O[C@@H](C1O)C2O)C(O)C(O)[C@@H]5O)C4O)C(O)C(O)[C@@H]3O (stereo partly drawn) [Cyclotetrasaccharide, cyclo{→6}-α-D-glucopyranosyl-(1→3)-α-D-glucopyranosyl-(1→6)-α-D-glucopyranosyl-(1→3)-α-D-glucopyranosyl-(1→}]
Formed conjugated diene ([1]; reaction time 0 hr, AAPH, 37° C.): 0.00 μg/mg-protein
Formed conjugated diene ([1]; reaction time 2 hr, AAPH, 37° C.): 2.46 μg/mg-protein
Conjugated diene formation: (%) ([1]; reaction time 2 hr, versus system with no cyclotetrasaccharide): (15) %
Formed conjugated diene ([1]; reaction time 6 hr, AAPH, 37° C.): 61.84 μg/mg-protein
Conjugated diene formation: (%) ([1]; reaction time 6 hr, versus system with no cyclotetrasaccharide): (60) %
Formed TBARS ([1]; six hours after initiating the incubation, AAPH, 37° C.): 3.71 µg/mg-protein
TBARS formation (%) ([1]; six hours, versus system with no cyclotetrasaccharide): (61) %
Sucrase activity ([2]; enzyme solution incubated with AAPH at 37° C. for two hours, with or without cyclotetrasaccharide): 0.0105 u/mg-protein
Sucrase Relative residual activity (%) ([2]; versus system with no AAPH, 37° C., two hours): (72) %
Formation percentage (%) of LDL oxide ([3]; 1 mM cyclotetrasaccharide, 120 min): 76%
Absorbance at a wavelength of 234 nm Average ([3]; 1 mM cyclotetrasaccharide): 0.163
Formation percentage (%) of LDL oxide ([3]; 5 mM cyclotetrasaccharide, 120 min): 35%
Absorbance at a wavelength of 234 nm Average ([3]; 5 mM cyclotetrasaccharide): 0.076
Absorbance at a wavelength of 234 nm Average ([3]; 10 mM cyclotetrasaccharide): 0.028
Absorbance at a wavelength of 234 nm ([3]; 50 mM cyclotetrasaccharide, 0 min after adding AAPH): 0.0
Formation percentage (%) of LDL oxide ([3]; 50 mM cyclotetrasaccharide, 30 min, versus system with no cyclotetrasaccharide): 14%
Absorbance at a wavelength of 234 nm ([3]; 50 mM cyclotetrasaccharide, 30 min after adding AAPH): 0.018
Formation percentage (%) of LDL oxide ([3]; 50 mM cyclotetrasaccharide, 60 min, versus system with no cyclotetrasaccharide): 20%
Absorbance at a wavelength of 234 nm ([3]; 50 mM cyclotetrasaccharide, 60 min after adding AAPH): 0.042
Formation percentage (%) of LDL oxide ([3]; 50 mM cyclotetrasaccharide, 120 min, versus system with no cyclotetrasaccharide): 21%
Absorbance at a wavelength of 234 nm ([3]; 50 mM cyclotetrasaccharide, 120 min after adding AAPH): 0.046
Formation percentage (%) of LDL oxide ([3]; 50 mM cyclotetrasaccharide, 180 min, versus system with no cyclotetrasaccharide): 23%
Absorbance at a wavelength of 234 nm ([3]; 50 mM cyclotetrasaccharide, 180 min after adding AAPH): 0.056
Absorbance at a wavelength of 234 nm ([3]; 50 mM cyclotetrasaccharide, 240 min after adding AAPH): 0.064
Residual D3 percentage (%) [4, 5]: (100) %
Residual D3 percentage (%) ([4]; one day at 60° C.): (66) %
Amount of vitamin D3 ([4]; just after its preparation): 5.27 mg
Amount of vitamin D3 ([4]; one day at 60° C.): 3.49 mg
Amount of vitamin D3 ([4]; seven days at 60° C.): 2.65 mg
Amount of vitamin D3 ([4]; two days at 60° C.): 2.91 mg
Amount of vitamin D3 ([4]; two hours at 60° C.): 4.57 mg
Residual D3 percentage (%) ([4]; seven days at 60° C.): (50) %
Residual D3 percentage (%) ([4]; seven days at 60° C., listed as cyclotetrasaccharide): 90%
Residual D3 percentage (%) ([4]; two days at 60° C.): (55) %
Residual D3 percentage (%) ([4]; two hours at 60° C.): (87) %

OC[C@H]1O[C@H](O[C@H]2O[C@H](CO)[C@@H](O)[C@H](O)[C@H]2O)[C@H](O)[C@@H](O)[C@@H]1O [α, α-Trehalose, α, α-trehalose, reference compound]
Residual D3 percentage (%) [4, 5]: (100) %
Residual D3 percentage (%) ([4]; one day at 60° C.): (24) %
Amount of vitamin D3 ([4]; just after its preparation): 4.67 mg
Amount of vitamin D3 ([4]; one day at 60° C.): 1.11 mg
Amount of vitamin D3 ([4]; seven days at 60° C.): 1.05 mg
Amount of vitamin D3 ([4]; two days at 60° C.): 1.02 mg
Amount of vitamin D3 ([4]; two hours at 60° C.): 1.58 mg
Residual D3 percentage (%) ([4]; seven days at 60° C.): (22) %
Residual D3 percentage (%) ([4]; two days at 60° C.): (22) %
Residual D3 percentage (%) ([4]; two hours at 60° C.): (34) %
